Measurements reported in patent US20160184248A1, “COMPOSITIONS AND METHODS OF USE OF -HYDROXY-METHYLBUTYRATE (HMB) RESULTING IN AN ACUTE ENDOCRINE RESPONSE” (University of Central Florida Research Foundation Inc., priority 2014, published 2016).

Columns and labels:
[1] = tested on: insulin-like growth factor (IGF-1); test: Plasma IGF-1 response to resistance exercise after HMB-FA ingestion (commercial kit); type: in vivo, human
Excerpt: (§1) Twenty resistance trained men (22.3±2.4 y, 1.8±0.1 m, […]) volunteered to participate in this study. Participants were randomly separated into one of two groups: ingestion of HMB free-acid (HMB-FA; n=10) or ingestion of placebo (PL; n=10). Following an explanation of all procedures, risks, and benefits, each participant gave his informed consent prior to participation in this study. The Institutional Review Board for the protection of human subjects of the University of Central Florida approved the research protocol. For inclusion in this study, participants were required to have a minimum of one year of resistance training experience, particularly in the squat exercise. Participants were not permitted to use any additional nutritional supplements or medications while enrolled in this study. Screening for nutritional and hormonal supplements was accomplished via a health history questionnaire completed during participant recruitment.
(§2) The investigation utilized a placebo-controlled, double-blind, randomized design. Participants reported to the laboratory on two occasions. On the first visit (T1), participants were tested for their one-repetition maximum (1-RM) on the barbell back squat, dead lift, and barbell split squat exercises. Participants were instructed to refrain from any form of exercise for a minimum of 72 hours prior to the resistance training bout (T2). On T2, participants completed an intense lower-body resistance exercise session, which consisted of four sets of the barbell back squat, dead lift, and barbell split squat exercises. The barbell back squat exercise was performed with 80% of the participant's 1-RM and the dead lift and barbell split squat exercises were performed with 70% of the participant's 1-RM. Rest intervals were set at 90 s between each set and between exercises. Participants were encouraged to perform as many repetitions as possible up to 10 repetitions for each set. Total training volume, calculated as repetitions×load, was recorded for further analysis.
The HMB-FA supplement consisted of one gram of β-hydroxy-β-methylbutyrate in the free-acid form (Beta-TOR®, Metabolic Technologies Inc., Ames, Iowa), reverse osmosis water, de-bittering agent, flavor, stevia extract, and potassium carbonate. Each serving of placebo contained one gram of polydextrose and was identical to the HMB-FA supplement in appearance and taste. The HMB-FA and PL treatments were produced and supplied by Metabolic Technologies Inc. (Ames, Iowa). One serving of HMB-FA or PL was consumed 30 minutes prior to the exercise session. All HMB-FA and PL ingestion took place in the Human Performance Lab and was witnessed by one of the investigators. […]
(§3) Prior to analysis, all data were assessed to ensure normal distribution, homogeneity of variance, and sphericity. […]

muscle damage = settings: initiated 30 min prior to an acute bout of exercise; cited from earlier work
[2] = in vivo; cited from earlier work
growth hormone = test: Growth hormone response to resistance exercise after HMB-FA ingestion (commercial kit); type: in vivo, human
Excerpt: as §1
as §2, with “Participants were encouraged to perform as many repetitions as possible up to 10 repetitions for each set.” left out, “analysis. […]” for “analysis.”
as §3

[3] = Plasma HMB by gas chromatography-mass spectrometry after HMB-FA ingestion and resistance exercise; type: in vivo, human; settings: 1 g HMB-FA 30 min prior to exercise, p<0.01
Excerpt: as §1, with “Participants were not permitted to use any additional nutritional supplements or medications while enrolled in this study. Screening for nutritional and hormonal supplements was accomplished via a health history questionnaire completed during participant recruitment.” left out
The investigation utilized a placebo-controlled, double-blind, randomized design. […] Total training volume, calculated as repetitions×load, was recorded for further analysis. […]
Plasma HMB was analyzed by Metabolic Technologies Inc. by gas chromatography-mass spectrometry with previously outlined methods to confirm HMB appearance in the plasma (17). Myoglobin concentration was determined via a Myoglobin ELISA kit (Calbiotec, Cat no: MG017C, Spring Valley, Calif., USA) and prepared per manufacturer's instructions. Determination of serum immunoreactivity values was determined using a BioTek Eon spectrophotometer (BioTek, Winooski, Vt., USA). […]

insulin [4] = settings: HMB treated rats, prolonged supplementation; cited from earlier work
[5] = after HMB is fed; cited from earlier work
insulin [6] = test: Serum insulin response to the exercise protocol after HMB ingestion; type: in vivo, human; settings: acute ingestion and training session
Excerpt: as §1
(§4) The investigation utilized a placebo-controlled, double-blind, randomized design. Participants reported to the laboratory on two occasions. […] Total training volume, calculated as repetitions×load, was recorded for further analysis. […]
as §3

testosterone = test: Plasma testosterone after HMB-FA ingestion and resistance exercise; type: in vivo, human; settings: acute ingestion and training session
Excerpt: as §1, §4, §3

muscle proteolysis = settings: isolated rat muscle, in vitro; cited from earlier work
[7] = healthy young or old adults; cited from earlier work
[8] = AUC over PRE, IP, 30P, trapezoidal, p=0.02

| SMILES | IGF-1 concentration vs PL ([1]; 30P) | IGF-1 AUC vs PL [1, 8] | IGF-1 concentration vs PL ([1]; IP) | IGF-1 concentration vs PL ([1]; PRE (baseline), supplement given 15 min before the PRE blood draw, p=0.012) | Attenuating muscle damage and ameliorating inflammatory response compared with CaHMB (muscle damage) | Absorption compared with CaHMB [2] | Tissue clearance compared with CaHMB [2] | Growth hormone concentration, elevation vs PL (growth hormone; 30P, p=0.100) | Growth hormone AUC vs PL (growth hormone; [8]) | Growth hormone concentration, elevation vs PL (growth hormone; IP, 1 g HMB-FA 30 min prior to exercise, p=0.021) | Plasma HMB concentrations ([3]; 30 min post-exercise (30P)) | Plasma HMB concentrations ([3]; immediately post-exercise (IP)) | Resting insulin concentrations (insulin [4]) | Loss of HMB to urine [5] | Effect on the insulin response to the exercise protocol (insulin [6]) | Circulating testosterone levels (testosterone) | Inhibition of muscle proteolysis (muscle proteolysis) | Side effects [7] |
| --- | --- | --- | --- | --- | --- | --- | --- | --- | --- | --- | --- | --- | --- | --- | --- | --- | --- | --- |
| CC(C)(O)CC(=O)O [HMB-FA, β-hydroxy-β-methylbutyric acid] | No differences were observed between the groups | greater IGF-1 response | No differences were observed between the groups | elevated at baseline | more efficacious | absorbed quicker | greater tissue clearance | no difference between the groups | significantly higher GH response | significantly higher than PL | significantly elevated | significantly elevated | – | – | – | – | – | – |
| CC(C)(O)CC(=O)O [HMB, β-hydroxy-β-methylbutyrate] | – | – | – | – | – | – | – | – | – | – | – | – | significant increases | 20-50% | unable to demonstrate any effect | no differences | potent inhibitor of muscle proteolysis | no side effects |
